What follows are compounds tested against T1, GPR119 (Homo sapiens, UniProt Q8TDV5) (assay: cAMP assays of selected examples (stimulation of cAMP)). Details: '>200 nM'.
T1 sequence (Q8TDV5 1-335): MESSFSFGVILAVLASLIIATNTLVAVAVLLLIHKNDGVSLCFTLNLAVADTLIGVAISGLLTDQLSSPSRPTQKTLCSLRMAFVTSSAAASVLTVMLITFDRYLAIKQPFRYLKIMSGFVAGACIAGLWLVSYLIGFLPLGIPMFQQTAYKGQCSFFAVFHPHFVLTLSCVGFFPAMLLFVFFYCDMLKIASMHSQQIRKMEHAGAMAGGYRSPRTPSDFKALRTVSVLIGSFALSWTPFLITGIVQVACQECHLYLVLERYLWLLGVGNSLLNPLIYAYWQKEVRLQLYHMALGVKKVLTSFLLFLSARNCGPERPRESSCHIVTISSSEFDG
Type: cell-based
From the text: Camp Assays of Selected Examples

SMILES	EC50 [µM]
CS(=O)(=O)c1ccc(OCc2cn(C3CCC(Oc4ncccn4)CC3)nn2)cc1 (centres unmarked)	> 0.2
Cc1cnc(OC2CCC(n3cc(COc4ccc(S(C)(=O)=O)cc4)nn3)CC2)nc1 (centres unmarked)	> 0.2

More lines, now with the values ahead:

EC50 [µM]	SMILES
> 0.2	CCc1cnc(OC2CCC(n3cc(COc4ccc(S(C)(=O)=O)cc4)nn3)CC2)nc1 (centres unmarked)
> 0.2	CCc1cnc(OC2CCC(c3nc(CNc4ccc(S(C)(=O)=O)cc4)cs3)CC2)nc1 (centres unmarked)

Same assay, conditions: <200 nM

SMILES	EC50 [µM]
CCc1cnc(OC2CCC(c3nc(COc4ccc(S(C)(=O)=O)cc4)cs3)CC2)nc1 (centres unmarked)	< 0.2
CCc1cnc(OC2CCC(c3nc(COc4ccc(S(C)(=O)=O)cc4F)cs3)CC2)nc1 (centres unmarked)	< 0.2

The next lines start with the values.

EC50 [µM]	SMILES
< 0.2	CCc1cnc(OC2CCC(c3nc(COc4ccc(-n5cnnn5)cc4)cs3)CC2)nc1 (centres unmarked)
< 0.2	CCc1cnc(OC2CCC(Oc3c(F)cc(-c4ccc(S(C)(=O)=O)cc4)cc3F)CC2)nc1 (centres unmarked)
